From patent publication US9024021B2, “Diarylacetylene hydrazide containing tyrosine kinase inhibitors” (Sun Pharma Advanced Research Company Ltd., priority 2011, dated 2015) come the findings set out here.

For one experiment, the target named is T1, Abl (T315I) (human) (Homo sapiens, UniProt P00519, T315I).
T1 construct: purchased Millipore Pharma Services (contract assay, UK pharmacology laboratory)
The experiment is described as follows: Abl-T315I kinase inhibition (in vitro). The format is biochemical. On the procedure:
The kinase assays were performed by Millipore Pharma Services at their UK pharmacology laboratory.
[specific activity approx. 500 cpm/pmol, concentration as required). The reaction is initiated by the addition of the MgATP mix. After incubation for 40 minutes at room temperature, the reaction is stopped by the addition of 5 μL of a 3% phosphoric acid solution. 10 μL of the reaction is then spotted onto a P30 filtermat and washed three times for 5 minutes in 75 mM phosphoric acid and once in methanol prior to drying and scintillation counting.
Within each kinase assay, percent of control values were calculated for each test compound raw data point based on mean minimum (0%) and maximum (100%) controls (n=4 per control) for that kinase (sample−mean minimum/mean maximum−mean minimum×100%). Percent inhibition was calculated from these values (100−mean percent of control).

The next experiment has as its system K562 cells. Nature of the experiment: In-vitro cell proliferation assay (MTT), K562 cells. As to conditions: for inhibition at 0.01 µM / inhibition at 0.1 µM: Homo sapiens. The format is cell-based. The protocol: In-Vitro Cell Proliferation Assay
K562/U937 cells (2×10^4 per well) were incubated with the test compounds/vehicle in a total volume of 200 μL of media at 37° C. with 5% CO2. […] The cells were incubated overnight at 37° C. with 5% CO2. On Day 5 the optical density was measured at 570 nm with 630 nm as reference wavelength. The optical density in the vehicle treated wells was compared with that of the test compound treated wells.

Structures are written as SMILES.

As for `Cc1ccc(C(=O)NNC(=O)c2c(Cl)cccc2Cl)cc1C#Cc1cnc2ccccc2c1` [I.5, N′-(2,6-Dichlorobenzoyl)-4-methy1-3-[2-(3-quinolyl)ethynyl]benzohydrazide], the “% Inhibition of Abl-T315I kinase” value was found to be 30.0% on Abl (T315I) (human) (3 nM) and 83.0% at Abl (T315I) (human) (30 nM). The “% Inhibition of cell proliferation in K562 cells” value in the experiment on K562 cells (10 nM) was 99.8%; in the experiment on K562 cells (100 nM), 99.9%.

What is called inhibition is the change of the read-out against control, counted positive when it falls. High values mean a strong effect, low ones a weak effect. At Abl (T315I) (human) (3 nM), `Cc1ccc(C(=O)NNC(=O)c2c(C)cccc2F)cc1C#Cc1cnc2ccccc2c1` [I.14, N′-(2-Fluoro-6-methylbenzoyl)-4-methyl-3-[2-(3-quinolyl)ethynyl]benzohydrazide] yielded an inhibition at 0.003 µM of 1%. Further, at Abl (T315I) (human) (30 nM), the inhibition at 0.03 µM was found to be 60%. In the experiment with K562 cells (10 nM), this compound returned an inhibition at 0.01 µM of 68.5%. 0.1 µM produced 71.7% inhibition in the experiment with K562 cells (100 nM).

In the case of `Cc1ccc(C(=O)NNC(=O)c2c(F)cccc2C(F)(F)F)cc1C#Cc1cnc2ccccc2c1` [I.25, N′-[2-Fluoro-6-(trifluoromethyl)benzoyl]-4-methyl-3-[2-(3-quinolyl)ethynyl]benzohydrazide], testing at 0.003 µM on Abl (T315I) (human) (3 nM) gave an inhibition of 26%. The same compound yielded an inhibition at 0.03 µM on Abl (T315I) (human) (30 nM) of 65%. The compound further yielded an inhibition at 0.01 µM in the experiment on K562 cells (10 nM) of 71.5%. Also, in the experiment on K562 cells (100 nM), the inhibition at 0.1 µM was determined as 73%.

Regarding `Cc1ccc(C(=O)NNC(=O)c2c(C)cccc2Cl)cc1C#Cc1cnc2ccc(Cl)cc2n1` [I.26, N′-(2-Chloro-6-methylbenzoyl)-3-[2-(7-chloroquinoxalin-2-yl)ethynyl]-4-methylbenzohydrazide], the inhibition at 0.003 µM on Abl (T315I) (human) (3 nM) was 3%. In addition, on Abl (T315I) (human) (30 nM), testing at 0.03 µM gave an inhibition of 41%. In the experiment with K562 cells (10 nM), this compound gave an inhibition at 0.01 µM of 71.8%. Moreover, the inhibition at 0.1 µM in the experiment on K562 cells (100 nM) stood at 78.2%.

For `Cc1ccc(C(=O)NNC(=O)c2c(C)cccc2Cl)cc1C#Cc1cnc2ccccc2n1` [I.27, N′-(2-Chloro-6-methylbenzoyl)-4-methyl-3-[2-(quinoxalin-2-yl)ethynyl]benzohydrazide], the inhibition at 0.003 µM at Abl (T315I) (human) (3 nM) came out at 0%. This compound also yielded an inhibition at 0.03 µM at Abl (T315I) (human) (30 nM) of 55%. Also, 0.01 µM produced 79.3% inhibition in the experiment on K562 cells (10 nM). In the experiment on K562 cells (100 nM), this compound displayed an inhibition at 0.1 µM of 75.3%.

`Cc1ccc(C(=O)NNC(=O)c2c(C)cccc2Cl)cc1C#Cc1cnc2ccc(Cl)cc2c1` [I.50, N′-(2-Chloro-6-methylbenzoyl)-4-methyl-3-[2-(6-chloro-3-quinolyl)ethynyl]benzohydrazide] showed an inhibition at 0.01 µM with K562 cells (10 nM) of 69.6%. Besides, in the experiment with K562 cells (100 nM), testing at 0.1 µM gave an inhibition of 75%.

With `Cc1cccc(Cl)c1C(=O)NNC(=O)c1cccc(C#Cc2cnc3ccccc3c2)n1` [I.60, N′-(2-Chloro-6-methylbenzoyl)-6-[2-(3-quinolyl)ethynyl]pyridine-2-carboxylic acid hydrazide], the inhibition at 0.01 µM with K562 cells (10 nM) worked out at 8.6%. In the experiment with K562 cells (100 nM), this compound showed an inhibition at 0.1 µM of 8.5%.
